Two compounds from patent publication US20250197799A1, “CELLS DERIVED FROM POLYPEDILUM VANDERPLANKI AND ODOR SENSOR EQUIPPED THEREWITH” (University of Maryland, College Park, priority 2022, published 2025) can be followed below.

One assay addresses T1, Orco and Or47a (Drosophila melanogaster, UniProt P81921+Q9VNB5).
T1 construct: expressed in transfected cells; host or cells: Pv11 cells (Polypedilum vanderplanki)
T1 sequence (Q9VNB5 1-486): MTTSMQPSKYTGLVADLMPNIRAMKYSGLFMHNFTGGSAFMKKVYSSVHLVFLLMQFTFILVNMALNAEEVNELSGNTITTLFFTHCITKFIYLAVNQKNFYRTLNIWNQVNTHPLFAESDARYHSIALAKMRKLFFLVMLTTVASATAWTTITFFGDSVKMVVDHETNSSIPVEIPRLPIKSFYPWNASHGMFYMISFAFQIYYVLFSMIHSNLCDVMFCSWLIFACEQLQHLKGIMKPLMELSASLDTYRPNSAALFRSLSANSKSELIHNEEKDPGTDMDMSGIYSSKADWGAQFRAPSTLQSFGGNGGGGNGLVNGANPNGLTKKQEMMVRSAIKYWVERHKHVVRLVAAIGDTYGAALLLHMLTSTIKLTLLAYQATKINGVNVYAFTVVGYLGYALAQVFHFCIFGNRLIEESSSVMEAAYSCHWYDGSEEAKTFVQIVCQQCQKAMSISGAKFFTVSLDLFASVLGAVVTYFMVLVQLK
T1 sequence (P81921 1-385): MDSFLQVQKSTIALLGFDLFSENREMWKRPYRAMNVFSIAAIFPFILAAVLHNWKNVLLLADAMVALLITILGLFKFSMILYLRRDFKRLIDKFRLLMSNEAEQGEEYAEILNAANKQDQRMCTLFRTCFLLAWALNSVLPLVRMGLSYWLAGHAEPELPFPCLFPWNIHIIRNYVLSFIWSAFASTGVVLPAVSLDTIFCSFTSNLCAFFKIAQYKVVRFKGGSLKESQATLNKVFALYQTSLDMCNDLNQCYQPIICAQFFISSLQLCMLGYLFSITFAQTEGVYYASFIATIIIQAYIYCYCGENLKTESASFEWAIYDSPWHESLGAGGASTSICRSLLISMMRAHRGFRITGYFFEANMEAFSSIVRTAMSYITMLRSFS
The assay can be described thus: Fluorescence on stimulation of Pv11 transient expression strain (GCaMP6f, Orco, Or47a). The format is cell-based. The following applies: fluorescence microscope, DMSO negative control. The source says:
1. Transient expression strain preparation. GCaMP6f cDNA was amplified by PCR in a conventional manner, and a pPv121-GcaMP6f vector was produced by inserting the amplified DNA sequence (SEQ ID NO: 2) encoding GcaMP6f downstream of a 121 promoter of a pPv121-MCS vector (Tokumoto et. Al., doi: https://doi. Org/10.1101/2020.05.29.123570 “Development of a Tet-On inducible expression system for the anhydrobiotic cell line, Pv11”). Similarly, the cDNA of Orco derived from Drosophila melanogaster was amplified by PCR by a conventional method, and a pPv121-Orco vector was generated by inserting the amplified Orco-encoding DNA sequence (SEQ ID NO:3) downstream of the 121 promoter of the pPv121-MCS vector. […]
The resulting pPv121-GcaMP6f vector, pPv121-Orco vector, and pPv121-Or47a vector were simultaneously transfected to Pv11 cells (see Miyata Y., et. Al, Scientific Reports, 9 (1), 7004. (2019)), and a Pv11 transient expression strain was produced that transiently expressed the GaMP6f, Orco, and Or47a proteins. If the membrane proteins Orco and Or47a were expressed and GcaMP6f was expressed in the cytoplasm, then by stimulating Pv11 transient expression strains with Orco or Or47a agonists or ligands, calcium ion influxed into the cells, and the fluorescence of GcaMP6f was observed. […]

A further assay addresses T2, Orco-Or47a (Drosophila melanogaster, UniProt P81921+Q9VNB5).
T2 sequence (Q9VNB5 1-486): T1 sequence (Q9VNB5 1-486)
T2 sequence (P81921 1-385): T1 sequence (P81921 1-385)
The assay can be described thus: Response after rehydration with cycloheximide treatment, Orco-Or47a stable expression cell line. The format is cell-based. Also on record: remnant residues; expressed in transfected cells; host or cells: Pv11 cells (Polypedilum vanderplanki), CRIS-PITCh knock-in at the Pv.00443 locus downstream of the 121 promoter, Zeocin selection and single-cell sorting. The protocol: 7. Confirmation that exogenous membrane protein responses in Orco-Or47a stable expression cell lines immediately after rehydration are not due to de novo protein synthesis. To confirm that the membrane protein response of the Orco-Or47a stable expression cell line immediately after rehydration was not due to de novo protein synthesis, cells were treated with cycloheximide (CHX, a protein synthesis inhibitor).
A previous study reported that 0.35 mM of cycloheximide is able to inhibit protein production in Pv11 cells. Therefore, also in this experiment, cycloheximide was dissolved in IPL-41 medium so that the cycloheximide concentration was 0.35 mM. An IPL-41 medium with 0.01 mM, 0.07 mM and 0.7 mM cycloheximide was also prepared. The rehydration of dried cells was performed using 1 ml of I PL-41 medium containing cycloheximide. One hour after rehydration and 24 hours after rehydration, the same operation as in 3.6 above was performed, and the fluorescence intensity was measured and analyzed. The ΔF/F0 was as described above. FIG. 7A and FIG. 7B are graphs showing changes in fluorescence intensity of the Orco-Or47a stable expression cell line response to VUAA1 and pentyl acetate, respectively, one hour after drying and rehydration. FIGS. 7C and 7D are graphs showing changes in fluorescence intensity, respectively, in response to VUAA1 and pentyl acetate of Orco-Or47a stable expression cell lines 24 hours after drying and rehydration.

Where [1] appears, read: 1 hour after drying-rehydration.
The mark [2] stands for this setting: 24 hours after rehydration, without CHX.

In the case of `CCCCCOC(C)=O` [pentyl acetate], the “fluorescence of GCaMP6f on stimulation” value at Orco and Or47a is reported as “fluorescence was observed”. The “response as change in fluorescence intensity (ΔF/F0)” value was “specific responses” at Orco-Or47a (setting [1]) and “strongly enhanced” at Orco-Or47a (setting [2]).

In the case of `CCc1ccc(NC(=O)CSc2nnc(-c3cccnc3)n2CC)cc1` [VUAA1, N-(4-ethylphenyl)-2-{[4-ethyl-5-(pyridin-3-yl)-4H-1,2,4-triazol-3-yl]sulfanyl}acetamide], the “fluorescence of GCaMP6f on stimulation” value on Orco and Or47a is reported as “fluorescence was observed”. For the same compound, the results for the “response as change in fluorescence intensity (ΔF/F0)” value at Orco-Or47a (setting [1]) and on Orco-Or47a (setting [2]) were “specific responses” and “strongly enhanced”, respectively.
